# Source: paper PMC10303271, “Synthesis and Receptor Binding Studies of α5 GABAAR Selective Novel Imidazodiazepines Targeted for Psychiatric and Cognitive Disorders” (Molecules, 2023)
# Experiments:
# [1] = tested on: BZP rat brain site; assay: PDSP binding at BZP rat brain site; settings: for Ki: N = 2, read-out: Binding Affinity BZR Secondary Screening Ki; for Ki / Binding Affinity BZR % Inhibition (Primary): rat brain; for Binding Affinity BZR % Inhibition (Primary): at 10,000 nM, N = 5
# Procedure: The BZR binding affinity of the test compounds was also measured using rat brain BzR. […] The efficacy of imidazodiazepines on the benzodiazepine receptor depends on various factors, including the specific subtype of the receptor they bind to, their chemical structure, and the dose.
# (§1) The NIMH PDSP assay protocol book [https://kidbdev.med.unc.edu/databases/PDSP%20Protocols%20II%202013-03-28.pdf accessed on 23 April 2023]. describes the protocols for primary and secondary radio-ligand binding assays. These assays were carried out in a final volume of 125 µL per well in the appropriate binding buffer.
# (§2) The binding of a ligand to a receptor, ion channel, or transporter was determined in the […] of 10 µM of the appropriate reference compound. […] Plates were incubated in the dark for 90 min at rt, and the reactions were stopped by vacuum filtration onto 0.3% polyethyleneimine (PEI) soaked 96-well filter mats using a 96-well Filtermateharvester. This was followed by three washes with cold PBS buffer. Radioactivity was then counted on a Microbeta counter. Nonlinear regression was used to analyze the data with N = 6 replicates.
# [2] = target: T1, 5-HT1D (Homo sapiens, UniProt P28221); assay: PDSP primary binding 5-HT1D; settings: 1.5 h; primary binding, 10,000 nM; last figure of the line = mean of the 4 before it; read-out: 5-HT1D, PDSP raw data, mean
# T1 construct: purchased NIMH Psychoactive Drug Screening Program (PDSP)
# T1 sequence (P28221 whole entry): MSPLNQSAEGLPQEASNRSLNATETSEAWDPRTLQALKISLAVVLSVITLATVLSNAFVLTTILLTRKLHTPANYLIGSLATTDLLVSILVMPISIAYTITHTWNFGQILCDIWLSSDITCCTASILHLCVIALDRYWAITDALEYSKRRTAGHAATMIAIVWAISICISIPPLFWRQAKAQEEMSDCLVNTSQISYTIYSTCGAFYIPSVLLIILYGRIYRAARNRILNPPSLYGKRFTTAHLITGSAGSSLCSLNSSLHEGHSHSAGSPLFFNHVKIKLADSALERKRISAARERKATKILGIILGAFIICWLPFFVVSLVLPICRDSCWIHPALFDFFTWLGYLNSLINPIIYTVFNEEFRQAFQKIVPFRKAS
# Procedure: (§3) To determine if any off-target receptor-binding effects are present, all the novel ligands were sent to the National Institute of Mental Health (NIMH), Psychoactive Drug Screening Program (PDSP). The ligands were screened over a panel of 47 receptors, ion channels, and transporters to determine any other possible interactions with […]. The hERG-binding was also determined. […] No binding of the test compounds to calcium channels was observed. […] It is necessary to screen the compounds for hERG-binding during the early process of drug discovery. The unintentional binding of many drugs to hERG can cause blockade of hERG K+ channels in the heart, which can cause many side effects including cardiac arrhythmias and sudden death. […] All of the α5 imidazodiazepines were tested for hERG-binding.
# as §1, §2
# [3] = target: T2, 5-HT3 (Homo sapiens, UniProt P46098); assay: PDSP primary binding 5-HT3; settings: 1.5 h; primary binding, 10,000 nM; last figure of the line = mean of the 4 before it; read-out: 5-HT3, PDSP raw data, mean
# T2 construct: purchased NIMH Psychoactive Drug Screening Program (PDSP)
# T2 sequence (P46098 24-478): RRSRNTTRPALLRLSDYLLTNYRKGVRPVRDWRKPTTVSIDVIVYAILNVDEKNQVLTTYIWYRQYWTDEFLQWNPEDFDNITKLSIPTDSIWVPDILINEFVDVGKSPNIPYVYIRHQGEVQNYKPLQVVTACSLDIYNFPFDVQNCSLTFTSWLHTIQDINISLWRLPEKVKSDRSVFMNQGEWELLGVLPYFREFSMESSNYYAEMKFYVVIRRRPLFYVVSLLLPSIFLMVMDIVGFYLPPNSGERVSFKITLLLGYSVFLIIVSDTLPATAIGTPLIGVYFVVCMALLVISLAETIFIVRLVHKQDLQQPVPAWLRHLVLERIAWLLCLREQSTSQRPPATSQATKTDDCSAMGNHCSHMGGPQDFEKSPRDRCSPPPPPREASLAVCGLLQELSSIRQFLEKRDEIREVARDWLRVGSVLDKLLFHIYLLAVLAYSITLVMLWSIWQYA
# Procedure: as §3, §1, §2
# [4] = target: T3, A2A (Homo sapiens, UniProt P29274); assay: PDSP primary binding A2A; settings: primary binding, 10,000 nM; last figure of the line = mean of the 4 before it
# T3 construct: purchased NIMH Psychoactive Drug Screening Program (PDSP)
# T3 sequence (P29274 whole entry): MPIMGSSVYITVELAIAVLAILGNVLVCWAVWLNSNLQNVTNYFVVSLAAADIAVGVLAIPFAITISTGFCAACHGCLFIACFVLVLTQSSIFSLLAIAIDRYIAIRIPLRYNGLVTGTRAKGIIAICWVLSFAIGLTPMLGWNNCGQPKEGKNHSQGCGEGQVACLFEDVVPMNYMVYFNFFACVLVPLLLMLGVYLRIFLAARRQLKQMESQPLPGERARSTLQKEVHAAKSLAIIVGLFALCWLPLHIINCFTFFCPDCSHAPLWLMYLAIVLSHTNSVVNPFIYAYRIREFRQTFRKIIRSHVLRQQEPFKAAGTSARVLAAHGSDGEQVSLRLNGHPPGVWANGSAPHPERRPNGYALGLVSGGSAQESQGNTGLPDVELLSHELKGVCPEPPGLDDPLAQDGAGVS
# Procedure: as §3, §1, §2
# [5] = target: T4, Alpha1B (Homo sapiens, UniProt P35368); assay: PDSP primary binding Alpha1B; settings: 1.5 h; primary binding, 10,000 nM; last figure of the line = mean of the 4 before it; read-out: Alpha1B, PDSP raw data, mean
# T4 construct: purchased NIMH Psychoactive Drug Screening Program (PDSP)
# T4 sequence (P35368 1-520): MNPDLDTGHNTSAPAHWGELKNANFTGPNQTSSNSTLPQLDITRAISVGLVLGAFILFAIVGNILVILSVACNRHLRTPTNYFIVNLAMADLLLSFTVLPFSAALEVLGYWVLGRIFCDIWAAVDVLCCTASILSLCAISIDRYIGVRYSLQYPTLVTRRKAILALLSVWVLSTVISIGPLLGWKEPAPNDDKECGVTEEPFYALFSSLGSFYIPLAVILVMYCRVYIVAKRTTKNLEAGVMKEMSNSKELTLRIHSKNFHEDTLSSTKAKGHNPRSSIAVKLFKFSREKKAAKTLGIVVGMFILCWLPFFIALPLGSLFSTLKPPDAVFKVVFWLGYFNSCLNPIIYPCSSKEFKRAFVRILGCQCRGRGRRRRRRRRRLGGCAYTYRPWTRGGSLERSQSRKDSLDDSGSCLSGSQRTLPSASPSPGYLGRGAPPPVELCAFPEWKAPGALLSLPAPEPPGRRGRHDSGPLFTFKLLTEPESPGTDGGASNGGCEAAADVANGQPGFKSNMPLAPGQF
# Procedure: as §3, §1, §2
# [6] = target: T5, M3 (Homo sapiens, UniProt P20309); assay: PDSP primary binding M3; settings: primary binding, 10,000 nM; last figure of the line = mean of the 4 before it; read-out: M3, PDSP raw data, mean
# T5 construct: purchased NIMH Psychoactive Drug Screening Program (PDSP)
# T5 sequence (P20309 whole entry): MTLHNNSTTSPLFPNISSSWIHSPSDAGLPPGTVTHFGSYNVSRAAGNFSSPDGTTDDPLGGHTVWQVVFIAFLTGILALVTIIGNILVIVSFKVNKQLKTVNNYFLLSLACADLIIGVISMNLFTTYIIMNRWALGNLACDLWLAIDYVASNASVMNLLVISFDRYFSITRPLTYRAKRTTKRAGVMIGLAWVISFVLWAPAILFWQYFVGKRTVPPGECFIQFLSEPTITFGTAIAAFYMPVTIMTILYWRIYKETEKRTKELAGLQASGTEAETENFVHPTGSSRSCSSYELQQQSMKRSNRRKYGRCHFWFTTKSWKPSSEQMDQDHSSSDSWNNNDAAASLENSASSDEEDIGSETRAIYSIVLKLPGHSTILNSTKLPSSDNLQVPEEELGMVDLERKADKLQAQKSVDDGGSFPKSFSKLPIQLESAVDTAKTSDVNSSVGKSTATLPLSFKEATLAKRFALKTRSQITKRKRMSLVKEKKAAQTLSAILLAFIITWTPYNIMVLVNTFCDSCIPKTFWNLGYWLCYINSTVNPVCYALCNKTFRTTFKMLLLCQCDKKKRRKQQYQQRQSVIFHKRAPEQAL
# Procedure: as §3, §1, §2
# [7] = target: T6, M4 (Homo sapiens, UniProt P08173); assay: PDSP primary binding M4; settings: primary binding, 10,000 nM; last figure of the line = mean of the 4 before it; read-out: M4, PDSP raw data, mean
# T6 construct: purchased NIMH Psychoactive Drug Screening Program (PDSP)
# T6 sequence (P08173 1-479): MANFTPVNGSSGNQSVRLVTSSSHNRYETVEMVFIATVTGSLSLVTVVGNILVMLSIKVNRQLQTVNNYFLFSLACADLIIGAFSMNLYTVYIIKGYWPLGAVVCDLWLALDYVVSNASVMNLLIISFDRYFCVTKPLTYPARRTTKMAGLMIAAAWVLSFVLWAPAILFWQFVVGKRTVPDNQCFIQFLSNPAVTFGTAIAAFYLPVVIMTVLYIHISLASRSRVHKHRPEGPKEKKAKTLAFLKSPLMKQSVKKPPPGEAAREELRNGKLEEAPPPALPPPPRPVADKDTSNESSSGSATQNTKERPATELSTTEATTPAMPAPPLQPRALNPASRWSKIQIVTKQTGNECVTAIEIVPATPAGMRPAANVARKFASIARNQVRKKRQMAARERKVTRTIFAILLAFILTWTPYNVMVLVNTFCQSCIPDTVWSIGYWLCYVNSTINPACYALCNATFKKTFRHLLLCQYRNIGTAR
# Procedure: as §3, §1, §2
# [8] = tested on: Sigma 1; assay: PDSP primary binding Sigma 1; settings: primary binding, 10,000 nM; last figure of the line = mean of the 4 before it
# Procedure: as §3, §1, §2
# [9] = target: T7, Alpha2Beta2 (Rattus norvegicus, UniProt P12389+P12390); assay: PDSP primary binding Alpha2Beta2; settings: primary binding, 10,000 nM; last figure of the line = mean of the 4 before it; read-out: Alpha2Beta2, PDSP raw data, mean
# T7 construct: purchased NIMH Psychoactive Drug Screening Program (PDSP)
# T7 sequence (P12389 28-511): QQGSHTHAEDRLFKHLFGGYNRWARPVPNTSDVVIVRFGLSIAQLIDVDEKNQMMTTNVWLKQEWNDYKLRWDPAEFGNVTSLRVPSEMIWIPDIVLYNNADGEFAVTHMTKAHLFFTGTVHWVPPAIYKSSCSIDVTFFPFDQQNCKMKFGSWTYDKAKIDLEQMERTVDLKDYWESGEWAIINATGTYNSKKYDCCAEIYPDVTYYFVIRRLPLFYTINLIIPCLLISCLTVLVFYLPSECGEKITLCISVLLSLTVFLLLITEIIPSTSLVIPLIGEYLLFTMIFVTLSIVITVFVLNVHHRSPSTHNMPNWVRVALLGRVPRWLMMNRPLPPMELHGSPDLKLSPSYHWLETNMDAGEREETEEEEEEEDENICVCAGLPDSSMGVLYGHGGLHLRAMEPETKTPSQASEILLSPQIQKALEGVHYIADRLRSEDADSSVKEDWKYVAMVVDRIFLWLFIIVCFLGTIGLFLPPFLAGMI
# T7 sequence (P12390 25-500): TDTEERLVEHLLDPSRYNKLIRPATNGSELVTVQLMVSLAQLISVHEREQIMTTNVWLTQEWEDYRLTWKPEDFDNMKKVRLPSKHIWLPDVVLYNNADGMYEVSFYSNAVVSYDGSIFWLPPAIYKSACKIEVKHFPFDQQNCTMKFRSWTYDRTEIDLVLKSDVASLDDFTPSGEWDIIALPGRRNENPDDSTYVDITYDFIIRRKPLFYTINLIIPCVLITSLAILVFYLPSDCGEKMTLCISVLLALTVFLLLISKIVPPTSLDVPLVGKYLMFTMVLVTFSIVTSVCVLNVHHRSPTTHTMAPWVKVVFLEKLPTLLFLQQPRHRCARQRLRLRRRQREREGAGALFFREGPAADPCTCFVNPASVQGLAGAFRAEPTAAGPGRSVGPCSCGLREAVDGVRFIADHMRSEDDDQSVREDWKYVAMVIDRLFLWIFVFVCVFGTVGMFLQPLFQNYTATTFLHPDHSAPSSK
# Procedure: as §3, §1, §2
Structure (SMILES),"BZP Rat Brain Site, PDSP raw data, mean ([1]; primary binding, 10,000 nM, last figure of the line = mean of the 4 before it) [%]",inhibition at 10 µM [2] [%],inhibition at 10 µM [3] [%],"A2A, PDSP raw data, mean [4] [%]",inhibition at 10 µM [5] [%],inhibition at 10 µM [6] [%],inhibition at 10 µM [7] [%],"Sigma 1, PDSP raw data, mean [8] [%]",inhibition at 10 µM [9] [%],Ki [1] [µM],Binding Affinity BZR % Inhibition (Primary) [1] [%]
"C[C@H]1N=C(c2ccccc2F)c2cc(Cl)ccc2-n2cnc(-c3nc(C4CC4)no3)c21 [Compound 38, (R)-5-(8-Chloro-6-(2′-fluorophenyl)-4-methyl-4H-benzo[f]imidazo[1,5-a][1,4]diazepin-3-yl)-3-cyclopropyl-1,2,4-oxadiazole]",88.28,7.31,13.5,19.95,10.8,19.3,-8.66,-1.51,1.44,–,–
"CCc1noc(-c2ncn3c2CN=C(c2ccccc2F)c2cc(C4CC4)ccc2-3)n1 [Compound 44, 5-(8-Cyclopropyl-6-(2′-fluorophenyl)-4H-benzo[f]imidazo[1,5-a][1,4]diazepin-3-yl)-3-ethyl-1,2,4-oxadiazole]",–,67.4,12.8,21.36,6.87,-0.6,-4.92,53.37,-6.67,0.194 ± 0.0627,96.52 ± 2.57
"CCc1noc(-c2ncn3c2[C@@H](C)N=C(c2ccccc2F)c2cc(C4CC4)ccc2-3)n1 [Compound 46, (R)-5-(8-Cyclopropyl-6-(2′-fluorophenyl)-4-methyl-4H-benzo[f]imidazo[1,5-a][1,4]diazepin-3-yl)-3-ethyl-1,2,4-oxadiazole]",–,17.7,29.8,27.25,9.31,8.95,-0.8,34.74,-2.72,3.79 ± 0.632,65.25 ± 5.33
